How the values were obtained:
Test in all cases: drug sensitivity score (DSS) (DSS (unitless, 0-50 scale)); higher = more sensitive (stronger viability inhibition); extreme values may be limits of the assay
Conditions in all cases: 72 h; culture: 2D
[1] = test system: FM-MEL-2
How it was run: (§1)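 A 527-compound oncology library was screened in 384-well plates against melanoma cell lines and patient-derived melanoma cultures grown in 2D, the cultures at 1000–1500 cells per well. Each compound, in DMSO or water, was applied at five concentrations over a 10,000-fold range and incubated for 72 h at 37 °C before CellTiter-Glo luminescence readout of viability. A drug sensitivity score, a modified area-under-curve measure, was calculated from curves fitted in the in-house Breeze software.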

[2] = test system: WM852
How it was run: as §1

[3] = test system: Bowes
How it was run: as §1

[4] = test system: SK-MEL-28
How it was run: as §1

[5] = test system: FM-MEL-6
How it was run: as §1

[6] = test system: WM165
How it was run: as §1

[7] = test system: SK-MEL-2
How it was run: as §1

[8] = test system: FM-MEL-3
How it was run: as §1

SMILES	drug sensitivity score [1]	drug sensitivity score [2]	drug sensitivity score [3]	drug sensitivity score [4]	drug sensitivity score [5]	drug sensitivity score [6]	drug sensitivity score [7]	drug sensitivity score [8]
CC(C)C[C@H](NC(=O)[C@H](Cc1ccccc1)NC(=O)c1cnccn1)B(O)O [Bortezomib]	14.1	11.8	24.9	27.3	29	27	26.5	28.4
COc1cc(Nc2c(C#N)cnc3cc(OCCCN4CCN(C)CC4)c(OC)cc23)c(Cl)cc1Cl [Bosutinib]	5	7.6	8.2	8.7	4.9	8.4	4.7	3.2
COc1cc(N2CCC(N3CCN(C)CC3)CC2)ccc1Nc1ncc(Cl)c(Nc2ccccc2P(C)(C)=O)n1 [Brigatinib]	0.9	3.1	1.1	0.5	1.6	1.5	0.2	3.3
Cc1cc2c(F)c(Oc3ncnn4cc(OC[C@@H](C)O)c(C)c34)ccc2[nH]1 [Brivanib]	0	0	0	0	0	0	0	0
CCC/C=C/C=C/C(=O)O[C@H]1/C(=C/C(=O)OC)C[C@H]2C[C@H]([C@@H](C)O)OC(=O)C[C@H](O)C[C@@H]3C[C@H](OC(C)=O)C(C)(C)[C@](O)(C[C@@H]4C/C(=C/C(=O)OC)C[C@H](/C=C/C(C)(C)[C@]1(O)O2)O4)O3 [Bryostatin 1]	0	4.3	1.7	1.9	5.8	2	0	0.1
Nc1cc(C(F)(F)F)c(-c2cc(N3CCOCC3)nc(N3CCOCC3)n2)cn1 [Buparlisib]	6.5	6	5.1	6.5	6	6.6	3.3	6.7
Cc1nc2cccc(N)c2c(=O)n1C1CCC(=O)NC1=O (stereo not given) [CC122]	0	0	0	0	1.3	0	0	0.2
CCN1C(=O)CNc2ncc(-c3ccc(-c4nc[nH]n4)nc3C)nc21 [CC-115]	10.7	5	8.2	6.5	9.5	10.4	9.8	8.5
CO[C@H]1CC[C@H](N2C(=O)CNc3ncc(-c4ccc(C(C)(C)O)nc4)nc32)CC1 [CC-223]	7.4	4.2	4.1	5.2	5.9	7.1	3.1	5.1
COc1cc(C)[nH]c(=O)c1CNC(=O)c1c(C)n([C@H](C)C2CCOCC2)c2ccccc12 [CPI-360]	0.2	0	0	0	0.6	0	0	0
Cc1noc2c1-c1ccccc1C(c1ccc(Cl)cc1)=N[C@H]2CC(N)=O [CPI-0610]	5.2	0	3.8	2.8	0	6.6	1	4.8
O=C(O)CCCCC(CCSCc1ccccc1)SCc1ccccc1 (stereo not given) [CPI-613]	0	0	0	0	0	0	0	0
CN(C)c1cc2c(cc1Sc1nc3c(N)nccc3n1CCNCC(C)(C)C)OCO2 [CUDC-305]	9.7	7.2	13.8	8.6	5.3	16.1	10.7	13
COc1ccc(-c2nc(N3CCOCC3)c3sc(CN(C)c4ncc(C(=O)NO)cn4)cc3n2)cn1 [CUDC-907]	33.1	20.8	22.5	28	32.8	38.5	33.1	36.9
CO[C@H]1C(=O)[C@]2(C)[C@@H](OC)C[C@H]3OC[C@@]3(OC(C)=O)[C@H]2[C@H](OC(=O)c2ccccc2)[C@]2(O)C[C@H](OC(=O)[C@H](O)[C@@H](NC(=O)OC(C)(C)C)c3ccccc3)C(C)=C1C2(C)C [Cabazitaxel]	1.6	20.3	24.3	9.1	12.1	23.2	14.8	8.2
COc1cc2nccc(Oc3ccc(NC(=O)C4(C(=O)Nc5ccc(F)cc5)CC4)cc3)c2cc1OC [Cabozantinib]	2.2	0.8	2.1	0	0.2	0	0	2.5
C=CC(=O)Nc1cc2c(Nc3ccc(F)c(Cl)c3)ncnc2cc1OCCCN1CCOCC1 [Canertinib]	8.4	6.5	8.7	3.5	6.3	7.5	4.9	9.1
CCCCCOC(=O)Nc1nc(=O)n([C@@H]2O[C@H](C)[C@@H](O)[C@H]2O)cc1F [Capecitabine]	0	0	0	0	0	0	0	0
CNC(=O)c1ccc(-c2cnc3ncc(Cc4ccc5ncccc5c4)n3n2)cc1F [Capmatinib]	0	0	0	0	0	0	0	0
O=C(O)C1(C(=O)O)CCC1.[NH2-].[NH2-].[Pt+2] [Carboplatin]	0.9	0	0	3.2	7.8	10.2	2	2.8

From the supplement of paper PMC8633005
